The text below walks through data of publication PMC5626787, “Mouse Nudt13 is a Mitochondrial Nudix Hydrolase with NAD(P)H Pyrophosphohydrolase Activity” (The Protein Journal, 2017).

What is called Km is the concentration of substrate that gives half-maximal velocity.

For this assay, the target named is T1, Nudt13 (Mus musculus, UniProt Q8JZU0).
T1 construct: baculovirus, High Five insect cells
T1 sequence (Q8JZU0 1-352): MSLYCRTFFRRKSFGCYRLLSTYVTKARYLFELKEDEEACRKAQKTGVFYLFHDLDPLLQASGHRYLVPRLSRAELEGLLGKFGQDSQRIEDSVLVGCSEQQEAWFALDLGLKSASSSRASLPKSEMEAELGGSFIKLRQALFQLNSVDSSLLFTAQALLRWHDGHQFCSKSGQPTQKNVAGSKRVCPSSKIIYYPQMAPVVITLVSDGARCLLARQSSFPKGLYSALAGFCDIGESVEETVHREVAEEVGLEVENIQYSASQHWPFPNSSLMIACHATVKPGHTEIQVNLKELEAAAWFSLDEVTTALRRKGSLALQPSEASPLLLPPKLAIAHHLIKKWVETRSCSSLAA
Put plainly: HPLC product analysis, non-linear regression, Michaelis-Menten. The class given is biochemical. The following applies: 2 mM Mn2+, 50 mM Tris-HCl pH 8.0, 1 mM dithiothreitol, 37 °C; hydrolysis to NMNH and AMP. How it is done: HPLC product analysis, non-linear regression, Michaelis-Menten on Nudt13 | K m and k cat values were determined for NADH under optimal assay conditions

`NC(=O)C1=CN([C@@H]2O[C@H](COP(=O)(O)OP(=O)(O)OC[C@H]3O[C@@H](n4cnc5c(N)ncnc54)[C@H](O)[C@@H]3O)[C@@H](O)[C@H]2O)C=CC1` [NADH]: the Michaelis constant (Km) was 340 µM.
